The target in assay [1] is T1, BaPDH (prephenate dehydrogenase from Bacillus anthracis) (Bacillus anthracis, UniProt Q81P63). Kind of assay: biochemical. The settings on record: for Km: 25°C, pH 7.5. It counts as biochemical.
Assay [2] concerns the target T1, BaPDH (prephenate dehydrogenase from Bacillus anthracis). Kind of assay: biochemical. It counts as binding.
Assay [3] addresses arogenate dehydrogenase from cyanobacteria Synechocystis sp. As to conditions: cited from earlier work.
Assay [4] deals with T1, BaPDH (prephenate dehydrogenase from Bacillus anthracis). The assay is classed as binding.
Assay [5] has as its target AaPDH (prephenate dehydrogenase from Aquifex aeolicus). As to conditions: cited from earlier work.

Values joined by “and” are separate entries in the source; they are usually repeats but may differ in a detail not shown here. Identical values can stand only once. Like-named read-outs stand apart in the source and are kept apart here.

T1 sequence (Q81P63 1-378): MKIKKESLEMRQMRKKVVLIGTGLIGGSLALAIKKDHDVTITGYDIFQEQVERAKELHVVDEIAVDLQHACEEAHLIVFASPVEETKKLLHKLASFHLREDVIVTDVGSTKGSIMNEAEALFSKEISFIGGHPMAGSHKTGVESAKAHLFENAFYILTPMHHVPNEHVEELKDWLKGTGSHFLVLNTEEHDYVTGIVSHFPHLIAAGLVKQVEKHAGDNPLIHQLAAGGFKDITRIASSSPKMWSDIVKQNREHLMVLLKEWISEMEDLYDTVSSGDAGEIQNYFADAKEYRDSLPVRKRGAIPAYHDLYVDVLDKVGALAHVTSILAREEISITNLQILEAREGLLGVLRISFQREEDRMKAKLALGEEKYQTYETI

Turning to `N[C@@H](Cc1ccc(O)cc1)C(=O)O` [Tyrosine, L-tyrosine], the Ki in assay [1] was 1.47 ± 0.07 µM; in assay [3] it was 70 µM; in assay [5], 15.9 ± 1.3 µM. In addition, the mode of inhibition result in assay [1] is reported as “non-competitive inhibition”. The “Binding sites per protein dimer (N)” value in assay [2] is 1.002 ± 0.001 and 0.928 ± 0.003. Moreover, the Kd in assay [2] (Kd) is 0.64 µM and 0.37 µM. For the same compound, in assay [4], the Tm is 51 ± 1 °C.
Consider `NC(=O)C1=CN([C@@H]2O[C@H](COP(=O)(O)OP(=O)(O)OC[C@H]3O[C@@H](n4cnc5c(N)ncnc54)[C@H](OP(=O)(O)O)[C@@H]3O)[C@@H](O)[C@H]2O)C=CC1` [NADPH], for which, in assay [4], the “Increase in Tm with the addition of the ligand(s)” value (from here on “Increase in Tm with the addition”) was “do not significantly change and ns”; the Tm is 40 ± 1 °C.
Take `NC(=O)c1ccc[n+]([C@@H]2O[C@H](COP(=O)([O-])OP(=O)(O)OC[C@H]3O[C@@H](n4cnc5c(N)ncnc54)[C@H](O)[C@@H]3O)[C@@H](O)[C@H]2O)c1` [NAD^+]: in assay [1], the Km is 237 ± 44 µM. In addition, the “Binding sites per protein dimer (N)” value in assay [2] came to 0.90 ± 0.01. For the same compound, in assay [4], the “Increase in Tm with the addition” value was “does not impart a significant change and ns”; the Tm is 41 ± 1 °C.
With `NC(=O)c1ccc[n+]([C@@H]2O[C@H](COP(=O)([O-])OP(=O)(O)OC[C@H]3O[C@@H](n4cnc5c(N)ncnc54)[C@H](OP(=O)(O)O)[C@@H]3O)[C@@H](O)[C@H]2O)c1` [NADP^+], the Kd result in assay [2] is “No detectable binding”. Besides, in assay [4], the “Increase in Tm with the addition” value was “do not significantly change and ns”; the Tm stood at 41 ± 1 °C.
As to `O=C(O)C(=O)CC1(C(=O)O)C=CC(O)C=C1` (stereo not shown) [prephenate], in assay [1], the Km stood at 58 ± 9 µM.
Consider `NC(=O)C1=CN([C@@H]2O[C@H](COP(=O)(O)OP(=O)(O)OC[C@H]3O[C@@H](n4cnc5c(N)ncnc54)[C@H](O)[C@@H]3O)[C@@H](O)[C@H]2O)C=CC1` [NADH], for which, in assay [4], the “Increase in Tm with the addition” value was “do not significantly change and ns”; the Tm stood at 43 ± 2 °C.

The term Ki denotes the equilibrium dissociation constant of an inhibitor or competing ligand from its target. For orientation: Kd means the concentration at which binding is half-saturated. By Km is commonly meant the substrate concentration at which the rate is half of its maximum.
